Results as given in US20050053612A1, “Nucleotide regulation of immune responses” (priority 2003, published 2005).
“Also recorded” adds a separate entry of the source.

What was measured:
XS106 cells [1] = test: Cytokine content of supernatants by ELISA; type: cell-based, mouse
[2] = tested on: group A streptococcus (GAS); parameters: species or system Streptococcus pyogenes; settings: in vivo
BALB/c mice = test: Contact hypersensitivity (CHS) assay, DNFB, ear swelling; settings: mouse, in vivo
CAF1 mice = test: Tumor vaccine: delayed-type hypersensitivity to tumor-associated antigens (TAA), footpad swelling; settings: mouse, in vivo
XS106 cells [3] = test: FACS analysis of I-A, CD80 and CD86 expression; type: cell-based, mouse; settings: for effect on ATPγS-enhanced CD80 expression: pre-incubated with 300 μM oATP for 2 hours, then GM-CSF/LPS and ATPγS
Langerhans cells = test: HDK-1 assay: antigen presentation by Langerhans cells, IFNγ by ELISA; type: cell-based, BALB/c mice

## Nc1ncnc2c1ncn2[C@@H]1O[C@H](COP(=O)(O)OP(=O)(O)OP(=O)(O)O)[C@@H](O)[C@H]1O [ATP]
XS106 cells [1]; ATP, significant at 10^−3 M and 10^−4 M, NS at 10^−5 M and 10^−6 M
  secretion of IL-1β: greatly augmented secretion
XS 106A cell
  cell viability: No effect on viability

## Nc1ncnc2c1ncn2[C@@H]1O[C@H](COP(=O)(O)OP(=O)(O)OP(O)(O)=S)[C@@H](O)[C@H]1O [ATPγS]
[2]
  lesion size vs mice immunized with killed GAS alone: much smaller lesions
  mean areas of the lesions: 2.80±1.11 mm^2
XS106 cells [1]
  release of IL-1β: significantly increased; also recorded: significant increase
  release of IL-10: decreasing release; also recorded: decrease
  release of IL-12: significantly increased; also recorded: significant increase
XS106
  concentrations that induce apoptosis: greater than 10^−6 molar
BALB/c mice
  ear swelling (contact hypersensitivity response): significantly augmented; also recorded: greatest ear swelling; also recorded: increased response upon challenge
  ear swelling (contact hypersensitivity response), ATPγS injected at a site distant from that of immunization: no effect on the response
  ear swelling, ATPγS only (not immunized with DNFB): least ear swelling
CAF1 mice
  delayed-type hypersensitivity (DTH) response, footpad swelling: significantly enhanced; also recorded: significantly greater DTH response
XS106 cells [3]
  expression of CD80: enhanced; also recorded: enhances expression
  expression of CD86: enhanced; also recorded: enhances expression
  expression of I-A: enhanced; also recorded: enhances expression
Langerhans cells
  IFNγ release by HDK-1 cells (presentation of KLH by LCs): dose-dependent increase; also recorded: augmented the ability of LCs to present KLH
  IFNγ, LCs incubated with ATPγS in the absence of KLH: only background levels; also recorded: did not significantly change the background response
  concentration at which the IFNγ response begins to decrease: greater than 10^−6 molar

## Nc1ncnc2c1ncn2[C@@H](C=O)O[C@@H](C=O)COP(=O)(O)OP(=O)(O)OP(=O)(O)O [oxidized ATP, reference compound]
XS106 cells [1]; data not shown
  effect on ATPγS-induced IL-1β secretion: significantly inhibited
XS106 cells [3]
  effect on ATPγS-enhanced CD80 expression: inhibits the effect of ATPγS on CD80 expression
XS106 cells [3]; listed as oATP
  effect on ATPγS-enhanced CD80 expression: inhibited
